Values of other authors in patent publication US20240009304A1, “USE OF NGF ANTIBODY IN CIPN PAIN” (Dartsbio Pharmaceuticals Ltd., priority 2020, published 2024).

Key:
[1] = tested on: dopaminergic receptor, adrenergic receptor, cholinergic receptor, histaminergic receptor, opioid receptor, glutamate receptor and GABA receptor; conditions: in vitro study, background; cited from earlier work
neuronal NE reuptake = conditions: preclinical studies, background; cited from earlier work
CIPN pain = conditions: background statement; cited from earlier work
monoamine oxidase = conditions: background; cited from earlier work
dopamine reuptake = conditions: preclinical studies, background; cited from earlier work
neuronal 5-HT reuptake = conditions: preclinical studies, background; cited from earlier work

Row | SMILES | affinity with receptors [1] | neuronal NE reuptake inhibition (neuronal NE reuptake) | effect in the treatment of CIPN pain (CIPN pain) | inhibition of monoamine oxidase (monoamine oxidase) | inhibitory effect on dopamine reuptake (dopamine reuptake) | neuronal 5-HT reuptake inhibition (neuronal 5-HT reuptake)
1 | CNCC[C@H](Oc1cccc2ccccc12)c1cccs1 [Duloxetine] | no obvious affinity | strong inhibitor | proven to be effective | does not inhibit | relatively weak | strong inhibitor
2 | CN(C)CCC=C1c2ccccc2CCc2ccccc21 [amitriptyline] | – | – | do not seem to be more effective than placebo | – | – | –
3 | NCC1(CC(=O)O)CCCCC1 [gabapentin] | – | – | do not seem to be more effective than placebo | – | – | –
4 | CC(C)C[C@H](CN)CC(=O)O [pregabalin] | – | – | do not seem to be more effective than placebo | – | – | –
